Reference: patent US9957267B2, “Somatostatin modulators and uses thereof” (Crinetics Pharmaceuticals, Inc., priority 2015, dated 2018)

How the values were obtained:
Format in all cases: cell-based
[1] = molecular target: T1, SSTR1 (Homo sapiens, UniProt P30872); experiment: cAMP functional agonist assay, CHO cells expressing SSTR1; details: CHO cells stably expressing SSTR1, cAMP; read-out: SSTR1 EC50
T1 construct: expressed in transfected cells
In short: (§1)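 CHO cells stably expressing the human or rodent somatostatin receptor subtype. Agonism measured as decrease in intracellular cAMP via Gi coupling.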

[2] = molecular target: T2, SSTR4 (Homo sapiens, UniProt P31391); experiment: cAMP functional agonist assay, CHO cells expressing SSTR4; details: CHO cells stably expressing SSTR4, cAMP; read-out: SSTR4 EC50
T2 construct: expressed in transfected cells
In short: as §1

[3] = molecular target: T3, human somatostatin receptor subtype 2a (Homo sapiens, UniProt P30874); experiment: cAMP assay for SSTR2a agonists (HTRF cAMP kit, NKH-477 stimulated); details: CHO cells stably expressing human SSTR2a, 1.6 μM NKH-477
T3 construct: expressed in transfected cells

[4] = molecular target: T4, SSTR5 (Homo sapiens, UniProt P35346); experiment: cAMP functional agonist assay, CHO cells expressing SSTR5; details: CHO cells stably expressing SSTR5, cAMP
T4 construct: expressed in transfected cells
In short: (§2)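 CHO cells stably expressing a single somatostatin receptor subtype, grown to 85–100% confluence in F12-Ham's with 10% donor calf serum and hygromycin. Agonism assessed as a decrease in intracellular cAMP via Gi coupling.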

[5] = molecular target: SSTR3 (UniProt P32745); experiment: cAMP functional agonist assay, CHO cells expressing SSTR3; details: CHO cells stably expressing SSTR3, cAMP
In short: as §2

T3 sequence (P30874 whole entry): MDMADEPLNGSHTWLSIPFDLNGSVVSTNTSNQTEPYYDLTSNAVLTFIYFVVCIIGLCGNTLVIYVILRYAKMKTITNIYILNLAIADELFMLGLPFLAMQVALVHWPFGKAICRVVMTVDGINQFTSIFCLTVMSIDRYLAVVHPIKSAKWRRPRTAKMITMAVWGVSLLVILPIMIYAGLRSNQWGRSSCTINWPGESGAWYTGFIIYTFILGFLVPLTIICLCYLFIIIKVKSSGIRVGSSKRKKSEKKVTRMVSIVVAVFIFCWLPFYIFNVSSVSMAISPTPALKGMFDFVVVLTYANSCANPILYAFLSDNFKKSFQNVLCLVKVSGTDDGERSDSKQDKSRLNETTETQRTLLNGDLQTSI
T2 sequence (P31391 whole entry): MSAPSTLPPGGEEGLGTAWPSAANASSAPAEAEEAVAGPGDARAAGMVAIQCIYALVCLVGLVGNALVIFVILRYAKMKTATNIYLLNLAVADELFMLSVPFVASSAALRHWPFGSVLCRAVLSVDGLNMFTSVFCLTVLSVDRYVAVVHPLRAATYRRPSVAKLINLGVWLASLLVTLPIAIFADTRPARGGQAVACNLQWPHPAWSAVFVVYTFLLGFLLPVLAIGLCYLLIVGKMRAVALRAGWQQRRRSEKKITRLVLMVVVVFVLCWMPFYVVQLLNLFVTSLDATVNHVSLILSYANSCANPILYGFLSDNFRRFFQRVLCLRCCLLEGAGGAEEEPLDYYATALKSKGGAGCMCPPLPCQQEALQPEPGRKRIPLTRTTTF
T1 sequence (P30872 whole entry): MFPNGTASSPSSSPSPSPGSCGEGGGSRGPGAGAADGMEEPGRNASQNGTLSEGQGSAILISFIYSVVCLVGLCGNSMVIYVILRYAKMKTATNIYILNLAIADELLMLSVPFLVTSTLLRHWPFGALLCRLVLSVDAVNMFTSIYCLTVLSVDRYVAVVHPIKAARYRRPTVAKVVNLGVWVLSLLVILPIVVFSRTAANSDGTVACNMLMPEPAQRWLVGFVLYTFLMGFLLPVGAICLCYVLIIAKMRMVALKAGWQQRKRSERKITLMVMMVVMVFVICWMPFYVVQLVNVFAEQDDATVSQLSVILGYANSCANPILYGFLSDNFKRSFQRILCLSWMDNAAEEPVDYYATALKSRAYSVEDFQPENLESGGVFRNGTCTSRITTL
Sequence of SSTR3 (P32745 whole entry): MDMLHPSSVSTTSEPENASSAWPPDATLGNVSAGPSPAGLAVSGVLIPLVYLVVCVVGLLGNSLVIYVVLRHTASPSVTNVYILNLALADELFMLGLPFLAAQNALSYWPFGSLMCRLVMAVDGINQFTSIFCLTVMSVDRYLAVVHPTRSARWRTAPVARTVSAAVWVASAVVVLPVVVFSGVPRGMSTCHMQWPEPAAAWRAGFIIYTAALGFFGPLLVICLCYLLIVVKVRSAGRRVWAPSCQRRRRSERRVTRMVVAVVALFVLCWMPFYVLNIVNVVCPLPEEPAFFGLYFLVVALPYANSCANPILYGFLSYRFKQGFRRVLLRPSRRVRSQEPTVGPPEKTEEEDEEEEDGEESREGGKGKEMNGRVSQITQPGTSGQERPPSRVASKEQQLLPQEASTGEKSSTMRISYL
T4 sequence (P35346 whole entry): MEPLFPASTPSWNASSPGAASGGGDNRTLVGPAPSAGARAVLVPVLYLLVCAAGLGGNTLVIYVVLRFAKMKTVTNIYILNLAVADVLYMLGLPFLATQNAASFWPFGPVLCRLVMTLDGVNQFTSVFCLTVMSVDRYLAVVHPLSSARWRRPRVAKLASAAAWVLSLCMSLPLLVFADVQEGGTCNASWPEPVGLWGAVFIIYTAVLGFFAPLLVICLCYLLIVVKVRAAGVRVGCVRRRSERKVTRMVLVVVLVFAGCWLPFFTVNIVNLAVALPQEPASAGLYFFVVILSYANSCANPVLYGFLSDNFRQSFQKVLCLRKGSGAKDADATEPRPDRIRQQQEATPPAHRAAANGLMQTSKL

Structure (SMILES)	EC50 [1] [nM]	EC50 [2] [nM]	EC50 [3] [nM]	EC50 [4] [nM]	EC50 [5] [nM]
CC[C@H](N)CN(C)Cc1c(-c2cc(C)cc(Cl)c2)cnc2ncn(-c3cc(O)cc(C(F)(F)F)c3)c(=O)c12 [Compound A-65, 5-({[(2S)-2-aminobutyl](methyl)amino}methyl)-6-(3-chloro-5-methylphenyl)-3-[3-hydroxy-5-(trifluoromethyl)phenyl]-3H,4H-pyrido[2,3-d]pyrimidin-4-one]	100 to 10000	< 100	< 100	100 to 10000	< 100
CN(Cc1c(-c2cccc(CCO)c2)cnc2ncn(-c3cccc(O)c3)c(=O)c12)C[C@@H]1CCCN1 [Compound A-32, 6-[3-(2-hydroxyethyl)phenyl]-3-(3-hydroxyphenyl)-5-({methyl[(2S)-pyrrolidin-2-ylmethyl]amino}methyl)-3H,4H-pyrido[2,3-d]pyrimidin-4-one]	> 10000	< 100	< 100	> 10000	100 to 10000
